The values that follow come from ChEMBL document CHEMBL4330081, “Rational design of 5-((1H-imidazol-1-yl)methyl)quinolin-8-ol derivatives as novel bromodomain-containing protein 4 inhibitors” (Eur J Med Chem, 2019).

Series [1] concerns the target T1, Bromodomain-containing protein 4 (Homo sapiens, UniProt O60885). Kind of series: Inhibition of BRD4 in human MV4-11 cells assessed as down regulation of c-myc after 6 hrs by Western blot analysis. It is filed as cell-based. A general note: Immunoblotting shows a protein as a band on a membrane.
In series [2] the target is T1, Bromodomain-containing protein 4. Kind of series: Inhibition of BRD4 in human MM1S cells assessed as down regulation of c-myc after 6 hrs by Western blot analysis. It is filed as cell-based.
For series [3], the system named is MV4-11. Description: Antiproliferative activity against human MV4-11 cells after 72 hrs by CellTiter Glo luminescent assay. The format is functional, cell-based. The following applies: MV4-11, 72 h. (ATP-based viability assays read luminescence as a measure of living cells.)
Series [4] deals with T1, Bromodomain-containing protein 4. Description: Inhibition of BRD4 BD1 (unknown origin) using biotin labelled NeC: SGRG-K(Ac)-GG-K(Ac)-GLG-K(Ac)-GGA-K(Ac)-RHRKVGG-K as substrate preincubated for 15 mins followed by substrate addition measured after 30 mins by alpha screen assay. Background: Bead proximity is the source of the signal in Alpha formats.
The subject of series [5] is MM1.S. Description: Antiproliferative activity against human MM1S cells after 72 hrs by CellTiter Glo luminescent assay. It is filed as functional, cell-based.
Series [6] is described as follows: Half life in human hepatocytes at 1 uM up to 120 mins by LC/MS analysis. The format is ADME, cell-based, Hepatocyte.
The target of series [7] is T1, Bromodomain-containing protein 4.
Description: Stabilization of BRD4 BD1 (unknown origin) assessed as change in melting temperature at protein to test compound molar ratio of 1:40 by SYPRO Orange dye based fluorescence analysis
The target in series [8] is hERG (KCNH2) (Homo sapiens, UniProt Q12809). Description: in vitro. The following applies: CHO cells expressing human ERG.
Description: Inhibition of human ERG expressed in CHO cells at 40 uM at -80 mV holding potential after 2.5 mins by Qpatch clamp assay relative to control
For series [9], the system named is MDA-MB-231. Kind of series: Antiproliferative activity against human MDA-MB-231 cells after 72 hrs by CellTiter Glo luminescent assay. It is filed as functional, cell-based. The following applies: MDA-MB-231, 72 h.
The target of series [10] is T1, Bromodomain-containing protein 4. Kind of series: Inhibition of BRD4 in human MDA-MB-231 cells assessed as down regulation of c-myc at 3.125 to 50 uM after 6 hrs by Western blot analysis. It is filed as cell-based.
For series [11] the target is unchanged. Kind of series: Inhibition of BRD4 in human MV4-11 cells assessed as down regulation of c-myc at 3.125 to 50 uM after 6 hrs by Western blot analysis. The format is cell-based.
For series [12] the target is unchanged. Kind of series: Stabilization of BRD4 BD1 (unknown origin) assessed as change in melting temperature at protein to test compound molar ratio of 1:20 by SYPRO Orange dye based fluorescence analysis.
The target is the same in series [13]. Description: Stabilization of BRD4 BD1 (unknown origin) assessed as change in melting temperature at protein to test compound molar ratio of 1:10 by SYPRO Orange dye based fluorescence analysis.
Series [14] has the same target. Kind of series: Stabilization of BRD4 BD1 (unknown origin) assessed as change in melting temperature at protein to test compound molar ratio of 1:80 by SYPRO Orange dye based fluorescence analysis.

SMILES strings stand for the structures. Activity calls are given as the source filed them. The rule behind the calls is not given here.

hERG (KCNH2), sequence (Q12809 whole entry): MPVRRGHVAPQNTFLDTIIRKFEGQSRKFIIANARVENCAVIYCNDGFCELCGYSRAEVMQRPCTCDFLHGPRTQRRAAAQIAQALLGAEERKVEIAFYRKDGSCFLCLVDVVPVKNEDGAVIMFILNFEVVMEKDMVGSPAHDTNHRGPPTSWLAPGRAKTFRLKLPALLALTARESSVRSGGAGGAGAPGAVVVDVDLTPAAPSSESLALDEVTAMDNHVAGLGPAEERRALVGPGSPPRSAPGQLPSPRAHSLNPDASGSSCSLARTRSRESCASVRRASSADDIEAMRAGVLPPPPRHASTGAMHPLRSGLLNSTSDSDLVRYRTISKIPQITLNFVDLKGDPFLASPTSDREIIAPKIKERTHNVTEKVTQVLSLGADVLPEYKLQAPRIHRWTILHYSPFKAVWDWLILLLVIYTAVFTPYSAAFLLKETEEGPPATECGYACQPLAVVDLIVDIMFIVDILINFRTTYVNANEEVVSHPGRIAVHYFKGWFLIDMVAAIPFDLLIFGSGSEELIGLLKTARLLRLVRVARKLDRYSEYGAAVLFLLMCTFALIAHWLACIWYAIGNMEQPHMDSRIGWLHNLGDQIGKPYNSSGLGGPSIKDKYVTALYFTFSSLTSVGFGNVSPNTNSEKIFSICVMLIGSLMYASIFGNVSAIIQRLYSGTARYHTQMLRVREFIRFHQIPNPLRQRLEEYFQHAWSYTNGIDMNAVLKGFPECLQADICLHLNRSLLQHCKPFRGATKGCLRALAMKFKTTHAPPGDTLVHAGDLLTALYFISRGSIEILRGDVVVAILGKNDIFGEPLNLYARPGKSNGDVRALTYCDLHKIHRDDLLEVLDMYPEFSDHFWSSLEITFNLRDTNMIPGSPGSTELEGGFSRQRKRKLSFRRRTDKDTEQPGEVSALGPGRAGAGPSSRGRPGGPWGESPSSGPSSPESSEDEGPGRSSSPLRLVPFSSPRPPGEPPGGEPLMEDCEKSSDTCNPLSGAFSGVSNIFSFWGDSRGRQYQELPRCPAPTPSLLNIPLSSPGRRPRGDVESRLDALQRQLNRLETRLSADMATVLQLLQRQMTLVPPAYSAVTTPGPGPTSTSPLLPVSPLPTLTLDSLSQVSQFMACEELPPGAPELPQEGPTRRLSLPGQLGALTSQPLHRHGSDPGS

The inhibition is how much of the control response was suppressed. By IC50 is commonly meant the concentration needed to halve the response being measured. Broadly, the half-life is how long it takes for the measured level to halve. Lower therefore signals fast loss. One may read the ΔTm as the change in melting temperature against a reference sample. `Oc1ccc(Cn2cnc(F)c2)c2cccnc12`: the inhibition entry in series [1] and in [2] was “Dose-dependent effect” in each case. Moreover, the IC50 stood at 2200 nM in series [3], 70 nM in series [4], 1200 nM in series [5] and 34.3 µM in series [9]. This compound showed a half-life at 1 µM in series [6] of 23 min. Besides, the ΔTm in series [7] stood at 4.6 °C. The compound also showed an inhibition at 2.5 min, 40 µM in [8] of 10%.
In the case of `O=[N+]([O-])c1ccc2c(c1)ncn2Cc1ccc(O)c2ncccc12`, the IC50 in series [3] was 1000 nM; in series [4] it was 107 nM; in [5], 10900 nM; in series [9] it was 1.1 µM. For the same compound, in series [6], the half-life at 1 µM was 27 min. In addition, in [7], the ΔTm stood at 4 °C. In addition, the inhibition result in series [10] is “inactive”. The inhibition result in series [11] is “Active”.
On to `Oc1ccc(Cn2ccnc2)c2cccnc12`, for which the IC50 in series [3] worked out at 27000 nM; in series [4], 101 nM. In addition, the shift in melting temperature (ΔTm) in series [12] worked out at 2.8 °C; in series [13], 1.8 °C; in series [7], 3.9 °C; in [14] it was 5 °C. In [6], the half-life at 1 µM amounted to 21 min. This compound also gave an inhibition at 2.5 min, 40 µM in series [8] of 10%.
Regarding `Oc1ccc(Cn2cnc3ccccc32)c2cccnc12`, the inhibition result in [1] and in [2] was “Dose-dependent effect” each time. Besides, the IC50 in series [3] amounted to 1000 nM; in series [4], 337 nM; in series [5] it was 3000 nM; in [9], 4.7 µM. The compound also displayed a half-life at 1 µM in series [6] of 31 min. The ΔTm in series [7] was found to be 3.1 °C. In addition, the inhibition at 2.5 min, 40 µM in [8] was found to be 33%.
